Results reported in publication PMC12736120, “First-in-Human Phase I Clinical Trial of SLC-391, a Novel and Selective AXL Inhibitor, in Patients with Advanced Solid Tumours” (Pharmaceuticals, 2025).
Where two headings read alike, the source gives them in different places.

Assay: Plasma pharmacokinetics, QD and BID cohorts (non-compartmental)
Format: in vivo, human
Conditions: human, plasma, oral
Protocol: PK parameters were calculated by standard non-compartmental methods for SLC-391. Due to the long half-life of SLC-391 compared to the dosing interval, it was not possible to calculate a number of PK parameters, including plasma half-life and rate of elimination. Accumulation was assessed from the mean accumulation ratio factor (AR factor) calculated as the repeated dose (C1D21) mean value/single dose (C1D1) mean value for the PK parameters Cmax, AUC0–12, and AUC0–last for each dose group.
During QD dosing, blood samples for determination of SLC-391 plasma concentrations were collected predose and at 0.5, 1, 2, 3, 4, 6, 8, and 24 h after SLC-391 administration on cycle 1 day 1 (C1D1) and cycle 1 day 21 (C1D21). During BID dosing, blood samples were collected predose and at 1, 2, 3, 4, 6, 8, and 12 h after the first daily dose (before the second daily dose). Where possible, further samples were then collected at 13, 14, 22, and 24 h after the initial dose (predose C1D2). Blood samples were also collected on C1D21 (steady state) predose and at 1, 2, 3, 4, 6, 8, and 12 h after the first daily dose (before the second daily dose). Where possible, further samples were then collected at 13, 14, 22, and 24 h after the initial C1D21 dose (predose C2D1). An additional blood sample was also taken, where possible, at the end of treatment (EOT) visit.
After collection, blood samples were centrifuged, and plasma was separated and stored at −80 °C. Plasma concentrations of SLC-391 were measured by a validated analytical method involving liquid–liquid extraction followed by high-performance liquid chromatography (HPLC)–mass/mass spectroscopy assay using a Water Quattro Premier tandem quadrupole mass spectroscopy with Waters MassLynx data acquisition and processing software. Plasma analysis was carried out by Microconstants (San Diego, CA, USA) in compliance with the US FDA GLP regulations. The calibration range of the assay was from 0.100 to 100 ng/mL. Quality control samples prepared at 4 different analyte concentrations were analysed with each batch of samples against a separately prepared calibration standard. PK parameters were collected following single (day 1) and repeat dose (day 21) administration. PK parameters were summarised with appropriate descriptive statistics where possible (e.g., mean, geometric mean, median, maximum, minimum, and coefficient of variation). Descriptive PK parameters were determined by standard non-compartmental methods based on the concentration–time data of each subject. The nominal time was used for descriptive statistics calculations, and the actual sample collection times were used in PK analyses. PK analyses were performed using validated Phoenix WinNonlin Professional 8.3 (Certara, L.P., St. Louis, MO, USA).

With `Nc1ncc(-c2cnn(C3CCNCC3)c2)cc1-c1nnc(CC2CC2)o1` [SLC-391, 3-(5-[cyclopropylmethyl]-1,3,4-oxadiazol-2-yl)-5-(1-[piperidin-4-yl]-1H-pyrazol-4-yl)-pyridin-2-amine] the Cmax (110 mg, 110 mg BID, C1D1, median, n=3, plasma, read-out: Cmax) was 0.0931 µg/mL, the Tmax (110 mg, 110 mg BID, C1D1, median, n=3, plasma, read-out: Tmax) was 3 h and the AUC (110 mg, 110 mg BID, C1D21, mean, n=3, plasma, read-out: AUC0–12) was 2.26 µg·h/mL. For the same molecule, the AUC(0-t) (110 mg, 110 mg BID, C1D21, mean, n=3, plasma, read-out: AUC0–last) was 4.28 µg·h/mL, the Cmax (110 mg, 110 mg BID, C1D21, mean, n=3, plasma, read-out: Cmax) was 0.249 µg/mL and the Tmax (110 mg, 110 mg BID, C1D21, mean, n=3, plasma, read-out: Tmax) was 2.4 h. It also gave an AUC (110 mg, 110 mg BID, C1D21, median, n=3, plasma, read-out: AUC0–12) of 1.39 µg·h/mL, an AUC(0-t) (110 mg, 110 mg BID, C1D21, median, n=3, plasma, read-out: AUC0–last) of 2.56 µg·h/mL and a Cmax (110 mg, 110 mg BID, C1D21, median, n=3, plasma, read-out: Cmax) of 0.187 µg/mL. For the same molecule, the Tmax (110 mg, 110 mg BID, C1D21, median, n=3, plasma, read-out: Tmax) was 2.1 h, the AUC (125 mg, QD, C1D1, read-out: AUC0–12, Mean) was 0.672 µg·h/mL and the AUC (125 mg, QD, C1D1, read-out: AUC0–12, Median) was 0.877 µg·h/mL. It also gave an AUC(0-t) (125 mg, QD, C1D1, read-out: AUC0–last, Mean) of 1.04 µg·h/mL, an AUC(0-t) (125 mg, QD, C1D1, read-out: AUC0–last, Median) of 1.28 µg·h/mL and a Cmax (125 mg, QD, C1D1, read-out: Cmax, Mean) of 0.103 µg/mL. It also gave a Cmax (125 mg, QD, C1D1, read-out: Cmax, Median) of 0.123 µg/mL, a Tmax (125 mg, QD, C1D1, read-out: Tmax, Mean) of 2 h and a Tmax (125 mg, QD, C1D1, read-out: Tmax, Median) of 2.1 h. The AUC (125 mg, QD, C1D21, read-out: AUC0–12, Mean) was 1.12 µg·h/mL, the AUC (125 mg, QD, C1D21, read-out: AUC0–12, Median) was 1.38 µg·h/mL and the AUC(0-t) (125 mg, QD, C1D21, read-out: AUC0–last, Mean) was 1.84 µg·h/mL. For the same molecule, the AUC(0-t) (125 mg, QD, C1D21, read-out: AUC0–last, Median) was 2.34 µg·h/mL, the Cmax (125 mg, QD, C1D21, read-out: Cmax, Mean) was 0.147 µg/mL and the Cmax (125 mg, QD, C1D21, read-out: Cmax, Median) was 0.188 µg/mL. The Tmax (125 mg, QD, C1D21, read-out: Tmax, Mean) was 2 h, the Tmax (125 mg, QD, C1D21, read-out: Tmax, Median) was 2 h and the AUC (150 mg, 150 mg BID, C1D1, mean, n=5, plasma, read-out: AUC0–12) was 1.05 µg·h/mL. The AUC(0-t) (150 mg, 150 mg BID, C1D1, mean, n=6, plasma, read-out: AUC0–last) was 2.33 µg·h/mL, the Cmax (150 mg, 150 mg BID, C1D1, mean, n=6, plasma, read-out: Cmax) was 0.236 µg/mL and the Tmax (150 mg, 150 mg BID, C1D1, mean, n=6, plasma, read-out: Tmax) was 9 h. The AUC (150 mg, 150 mg BID, C1D1, median, n=5, plasma, read-out: AUC0–12) was 1.07 µg·h/mL, the AUC(0-t) (150 mg, 150 mg BID, C1D1, median, n=6, plasma, read-out: AUC0–last) was 1.69 µg·h/mL and the Cmax (150 mg, 150 mg BID, C1D1, median, n=6, plasma, read-out: Cmax) was 0.208 µg/mL. The Tmax (150 mg, 150 mg BID, C1D1, median, n=6, plasma, read-out: Tmax) was 2 h, the AUC (150 mg, 150 mg BID, C1D21, mean, n=6, plasma, read-out: AUC0–12) was 4.62 µg·h/mL and the AUC(0-t) (150 mg, 150 mg BID, C1D21, mean, n=6, plasma, read-out: AUC0–last) was 9.08 µg·h/mL. For the same molecule, the Cmax (150 mg, 150 mg BID, C1D21, mean, n=6, plasma, read-out: Cmax) was 0.527 µg/mL, the Tmax (150 mg, 150 mg BID, C1D21, mean, n=6, plasma, read-out: Tmax) was 3.5 h and the AUC (150 mg, 150 mg BID, C1D21, median, n=6, plasma, read-out: AUC0–12) was 4.87 µg·h/mL. The AUC(0-t) (150 mg, 150 mg BID, C1D21, median, n=6, plasma, read-out: AUC0–last) was 10 µg·h/mL, the Cmax (150 mg, 150 mg BID, C1D21, median, n=6, plasma, read-out: Cmax) was 0.549 µg/mL and the Tmax (150 mg, 150 mg BID, C1D21, median, n=6, plasma, read-out: Tmax) was 2.9 h. It also gave an AUC (150 mg, QD, C1D1, read-out: AUC0–12, Mean) of 0.946 µg·h/mL, an AUC (150 mg, QD, C1D1, read-out: AUC0–12, Median) of 0.892 µg·h/mL and an AUC(0-t) (150 mg, QD, C1D1, read-out: AUC0–last, Mean) of 1.61 µg·h/mL. For the same molecule, the AUC(0-t) (150 mg, QD, C1D1, read-out: AUC0–last, Median) was 1.46 µg·h/mL, the Cmax (150 mg, QD, C1D1, read-out: Cmax, Mean) was 0.156 µg/mL and the Cmax (150 mg, QD, C1D1, read-out: Cmax, Median) was 0.126 µg/mL. For the same molecule, the Tmax (150 mg, QD, C1D1, read-out: Tmax, Mean) was 5.5 h.
